Measured values from US10780090B2, “Heteroaryl compounds useful as inhibitors of SUMO activating enzyme” (Millennium Pharmaceuticals, Inc., priority 2014, dated 2020).

Biological target: recombinant human SAE enzyme (Homo sapiens (Human), UniProt Q9UBT2)
Assay: SAE HTRF enzyme assay
Type: biochemical
Conditions: for IC50: SAE inhibition, class symbols, legend in nM
In short: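 0.11 nM SAE incubated with 0.5 μM ATP, 0.01 μM Ubc9-GST and 0.125 μM Sumo-Flag in HEPES pH 7.5, MgCl2, GSH, BSA, ±inhibitor, 105 min at 24° C. EDTA stop; Eu-cryptate anti-Flag/XL-APC anti-GST HTRF read after 2 h. Values given as single-concentration % inhibition or IC50.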

[1] = SAE inhibition at compound concentration 0.111 μM

Chain of recombinant human SAE enzyme (Q9UBT2 whole entry): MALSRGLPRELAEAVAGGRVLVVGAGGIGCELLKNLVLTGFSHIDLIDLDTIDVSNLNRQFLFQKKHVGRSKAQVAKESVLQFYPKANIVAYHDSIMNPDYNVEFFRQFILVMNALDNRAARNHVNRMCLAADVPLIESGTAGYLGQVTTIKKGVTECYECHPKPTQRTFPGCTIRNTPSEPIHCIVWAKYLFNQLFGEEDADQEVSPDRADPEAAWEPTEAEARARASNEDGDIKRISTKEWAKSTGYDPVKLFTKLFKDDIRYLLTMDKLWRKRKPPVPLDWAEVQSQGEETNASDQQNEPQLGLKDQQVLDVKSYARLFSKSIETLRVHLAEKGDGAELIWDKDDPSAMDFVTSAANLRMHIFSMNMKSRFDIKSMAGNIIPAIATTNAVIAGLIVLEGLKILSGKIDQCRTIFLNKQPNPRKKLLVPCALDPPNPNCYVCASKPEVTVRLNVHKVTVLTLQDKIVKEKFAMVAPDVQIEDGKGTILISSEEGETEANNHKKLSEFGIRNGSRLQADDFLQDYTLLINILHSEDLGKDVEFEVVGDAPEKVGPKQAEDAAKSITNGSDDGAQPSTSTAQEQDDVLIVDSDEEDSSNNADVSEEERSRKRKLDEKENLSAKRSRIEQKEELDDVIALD
Chain of recombinant human SAE enzyme (Q9UBE0 whole entry partner): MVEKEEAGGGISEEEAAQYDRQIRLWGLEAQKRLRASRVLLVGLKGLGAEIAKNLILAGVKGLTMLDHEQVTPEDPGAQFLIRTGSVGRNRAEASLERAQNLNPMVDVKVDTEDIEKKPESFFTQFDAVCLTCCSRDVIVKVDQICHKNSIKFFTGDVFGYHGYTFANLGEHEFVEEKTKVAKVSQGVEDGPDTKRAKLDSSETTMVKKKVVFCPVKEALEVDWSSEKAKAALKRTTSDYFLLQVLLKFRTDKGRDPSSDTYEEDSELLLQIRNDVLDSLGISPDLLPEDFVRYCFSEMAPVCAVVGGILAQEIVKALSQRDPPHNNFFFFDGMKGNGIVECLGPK

Compound	Percent Inhibition [1] [%]	IC50 [nM]	inhibition at 0.111 µM (SAE inhibition at compound concentration 0.111 μM, read-out: Percent Inhibition) [%]
CC(C)(C)OC(=O)N1CCc2ccc(Cl)cc2[C@@H]1c1csc(C(=O)c2cncnc2N[C@@H]2C[C@H](COS(N)(=O)=O)[C@@H](O)C2)c1.CC(C)(C)OC(=O)N1CCc2ccc(Cl)cc2[C@H]1c1csc(C(=O)c2cncnc2N[C@@H]2C[C@H](COS(N)(=O)=O)[C@@H](O)C2)c1 (mixture of isomers) [I-334, tert-butyl (1R)-7-chloro-1-(5-{[4-({(1R,3S,4R)-3-hydroxy-4-[(sulfamoyloxy)methyl]cyclopentyl}amino)pyrimidin-5-yl]carbonyl}-3-thienyl)-3,4-dihydroisoquinoline-2(1H)-carboxylate and tert-butyl (1S)-7-chloro-1-(5-{[4-({(1R,3S,4R)-3-hydroxy-4-[(sulfamoyloxy)methyl]cyclopentyl}amino)pyrimidin-5-yl]carbonyl}-3-thienyl)-3,4-dihydroisoquinoline-2(1H)-carboxylate]	10	100 to 1000	
CC(C)(C)OC(=O)N1CCc2ccc(Cl)cc2[C@@H]1c1cc(C(=O)c2cncnc2N[C@@H]2C[C@H](COS(N)(=O)=O)[C@@H](O)C2)sc1Cl.CC(C)(C)OC(=O)N1CCc2ccc(Cl)cc2[C@H]1c1cc(C(=O)c2cncnc2N[C@@H]2C[C@H](COS(N)(=O)=O)[C@@H](O)C2)sc1Cl (mixture of isomers) [I-336, tert-butyl (1R)-7-chloro-1-(2-chloro-5-{[4-({(1R,3S,4R)-3-hydroxy-4-[(sulfamoyloxy)methyl]cyclopentyl}amino)pyrimidin-5-yl]carbonyl}-3-thienyl)-3,4-dihydroisoquinoline-2(1H)-carboxylate and tert-butyl (1S)-7-chloro-1-(2-chloro-5-{[4-({(1R,3S,4R)-3-hydroxy-4-[(sulfamoyloxy)methyl]cyclopentyl}amino)pyrimidin-5-yl]carbonyl}-3-thienyl)-3,4-dihydroisoquinoline-2(1H)-carboxylate]	15	100 to 1000	
Cc1sc(C(=O)c2cncnc2N[C@@H]2C[C@H](COS(N)(=O)=O)[C@@H](O)C2)cc1[C@@H]1OCCn2cc(C(F)(F)F)nc21 (mixture of isomers) [I-337, [(1R,2S,4R)-2-hydroxy-4-{[5-({5-methyl-4-[(8S)-2-(trifluoromethyl)-5,6-dihydro-8H-imidazo[2,1-c][1,4]oxazin-8-yl]-2-thienyl}carbonyl)pyrimidin-4-yl]amino}cyclopentyl]methyl sulfamate and [(1R,2S,4R)-2-hydroxy-4-{[5-({5-methyl-4-[(8R)-2-(trifluoromethyl)-5,6-dihydro-8H-imidazo[2,1-c][1,4]oxazin-8-yl]-2-thienyl}carbonyl)pyrimidin-4-yl]amino}cyclopentyl]methyl sulfamate]	89	10 to 100	
COc1ccc2c(n1)[C@H](c1cc(C(=O)c3cncnc3N[C@@H]3C[C@H](COS(N)(=O)=O)[C@@H](O)C3)sc1C)OCC2 (mixture of isomers) [I-339, [(1R,2S,4R)-2-hydroxy-4-{[5-({4-[(8S)-2-methoxy-5,8-dihydro-6H-pyrano[3,4-b]pyridin-8-yl]-5-methyl-2-thienyl}carbonyl)pyrimidin-4-yl]amino}cyclopentyl]methyl sulfamate and [(1R,2S,4R)-2-hydroxy-4-{[5-({4-[(8R)-2-methoxy-5,8-dihydro-6H-pyrano[3,4-b]pyridin-8-yl]-5-methyl-2-thienyl}carbonyl)pyrimidin-4-yl]amino}cyclopentyl]methyl sulfamate]	99	< 10	
COc1ccc2c(c1)[C@H](c1cc(C(=O)c3cncnc3N[C@@H]3C[C@H](COS(N)(=O)=O)[C@@H](O)C3)sc1C)OCC2 (mixture of isomers) [I-341, [(1R,2S,4R)-2-hydroxy-4-{[5-({4-[(1R)-7-methoxy-3,4-dihydro-1H-isochromen-1-yl]-5-methyl-2-thienyl}carbonyl)pyrimidin-4-yl]amino}cyclopentyl]methyl sulfamate and [(1R,2S,4R)-2-hydroxy-4-{[5-({4-[(1S)-7-methoxy-3,4-dihydro-1H-isochromen-1-yl]-5-methyl-2-thienyl}carbonyl)pyrimidin-4-yl]amino}cyclopentyl]methyl sulfamate]	10	100 to 1000	
NS(=O)(=O)OC[C@H]1C[C@@H](Nc2ncncc2C(=O)c2cc([C@@H]3OCC(=O)c4ccccc43)cs2)C[C@@H]1O (mixture of isomers) [I-342, [(1R,2S,4R)-2-hydroxy-4-{[5-({4-[(1R)-4-oxo-3,4-dihydro-1H-isochromen-1-yl]-2-thienyl}carbonyl)pyrimidin-4-yl]amino}cyclopentyl]methyl sulfamate and [(1R,2S,4R)-2-hydroxy-4-{[5-({4-[(1S)-4-oxo-3,4-dihydro-1H-isochromen-1-yl]-2-thienyl}carbonyl)pyrimidin-4-yl]amino}cyclopentyl]methyl sulfamate]	93	< 10	
Cc1sc(C(=O)c2cncnc2N[C@@H]2C[C@H](COS(N)(=O)=O)[C@@H](O)C2)cc1[C@@H]1OCCn2c1nc1ccccc12 (mixture of isomers) [I-344, [(1R,2S,4R)-4-{[5-({4-[(1S)-3,4-dihydro-1H-[1,4]oxazino[4,3-a]benzimidazol-1-yl]-5-methyl-2-thienyl}carbonyl)pyrimidin-4-yl]amino}-2-hydroxycyclopentyl]methyl sulfamate and [(1R,2S,4R)-4-{[5-({4-[(1R)-3,4-dihydro-1H-[1,4]oxazino[4,3-a]benzimidazol-1-yl]-5-methyl-2-thienyl}carbonyl)pyrimidin-4-yl]amino}-2-hydroxycyclopentyl]methyl sulfamate]	99	< 10	
CCc1ccc2c(c1)[C@H](c1cc(C(=O)c3cncnc3N[C@@H]3C[C@H](COS(N)(=O)=O)[C@@H](O)C3)sc1C)OCC2 (mixture of isomers) [I-346, [(1R,2S,4R)-4-{[5-({4-[(1R)-7-ethyl-3,4-dihydro-1H-isochromen-1-yl]-5-methyl-2-thienyl}carbonyl)pyrimidin-4-yl]amino}-2-hydroxycyclopentyl]methyl sulfamate and [(1R,2S,4R)-4-{[5-({4-[(1S)-7-ethyl-3,4-dihydro-1H-isochromen-1-yl]-5-methyl-2-thienyl}carbonyl)pyrimidin-4-yl]amino}-2-hydroxycyclopentyl]methyl sulfamate]	99	< 10	
Cc1ccc2c(c1)[C@H](c1cc(C(=O)c3cncnc3N[C@@H]3C[C@H](COS(N)(=O)=O)[C@@H](O)C3)sc1C)OCC2 (mixture of isomers) [I-347, [(1R,2S,4R)-2-hydroxy-4-{[5-({5-methyl-4-[(1R)-7-methyl-3,4-dihydro-1H-isochromen-1-yl]-2-thienyl}carbonyl)pyrimidin-4-yl]amino}cyclopentyl]methyl sulfamate and [(1R,2S,4R)-2-hydroxy-4-{[5-({5-methyl-4-[(1S)-7-methyl-3,4-dihydro-1H-isochromen-1-yl]-2-thienyl}carbonyl)pyrimidin-4-yl]amino}cyclopentyl]methyl sulfamate]	97	< 10	
Cc1sc(C(=O)c2cncnc2N[C@@H]2C[C@H](COS(N)(=O)=O)[C@@H](O)C2)cc1[C@H]1OCCc2ccc(N3CCCC3)nc21 (mixture of isomers) [I-348, [(1R,2S,4R)-2-hydroxy-4-{[5-({5-methyl-4-[(8R)-2-(pyrrolidin-1-yl)-5,8-dihydro-6H-pyrano[3,4-b]pyridin-8-yl]-2-thienyl}carbonyl)pyrimidin-4-yl]amino}cyclopentyl]methyl sulfamate and [(1R,2S,4R)-2-hydroxy-4-{[5-({5-methyl-4-[(8S)-2-(pyrrolidin-1-yl)-5,8-dihydro-6H-pyrano[3,4-b]pyridin-8-yl]-2-thienyl}carbonyl)pyrimidin-4-yl]amino}cyclopentyl]methyl sulfamate]	97	< 10	
NS(=O)(=O)OC[C@H]1C[C@@H](Nc2ncncc2C(=O)c2cc([C@@H]3CCc4ccc(Cl)cc43)cs2)C[C@@H]1O (mixture of isomers) [I-349, [(1R,2S,4R)-4-{[5-({4-[(1R)-6-chloro-2,3-dihydro-1H-inden-1-yl]-2-thienyl}carbonyl)pyrimidin-4-yl]amino}-2-hydroxycyclopentyl]methyl sulfamate and [(1R,2S,4R)-4-{[5-({4-[(1S)-6-chloro-2,3-dihydro-1H-inden-1-yl]-2-thienyl}carbonyl)pyrimidin-4-yl]amino}-2-hydroxycyclopentyl]methyl sulfamate]	42	100 to 1000	
Cc1nc2n(c1C)CCO[C@@H]2c1cc(C(=O)c2cncnc2N[C@@H]2C[C@H](COS(N)(=O)=O)[C@@H](O)C2)sc1C (mixture of isomers) [I-356, ((1R,2S,4R)-4-{(5-(4-((R)-2,3-dimethyl-6,8-dihydro-5H-imidazo[2,1-c][1,4c]oxazin-8-yl)-5-methylthiophene-2-carbonyl)pyrimidin-4-yl)amino)-2-hydroxycyclopentyl)methyl sulfamate and ((1R,2S,4R)-4-((5-4-((S)-2,3-dimethyl-6,8-dihydro-5H-imidazo[2,1-c][1,4]oxazin-8-yl)-5-methylthiophene-2-carbonyl)pyrimidin-4-yl)amino)-2-hydroxycyclopentyl)methyl sulfamate]	97	< 10	
Cc1sc(C(=O)c2cncnc2N[C@@H]2C[C@H](COS(N)(=O)=O)[C@@H](O)C2)cc1[C@@H]1SCc2ccc(Cl)cc21 (mixture of isomers) [I-359a, [(1RS,2SR,4RS)-4-[[5-[4-[(R)-6-chloro-1,3-dihydro-2-benzothiophene-1-yl]-5-methyl-thiophene-2-carbonyl]pyrimidin-4-yl]amino]-2-hydroxy-cyclopentyl]methyl sulfamate]		10 to 100	92
